Test results as given in patent US12594268B2, “Methods of treating Fabry disease in patients having a mutation in the GLA gene” (Amicus Therapeutics, Inc., priority 2018, dated 2026).
Positions count from the first letter of the chain named.

Tests used:
Type in all cases: cell-based
[1] = target: T1, α-Gal A mutant form Y216S (Homo sapiens, UniProt P06280, Y216S); assay: α-Gal A activity in lysates of transfected HEK-293 cells, Y216S
T1 construct: expressed in transfected cells; host or cells: HEK-293
T1 sequence (P06280 32-429 Y216S): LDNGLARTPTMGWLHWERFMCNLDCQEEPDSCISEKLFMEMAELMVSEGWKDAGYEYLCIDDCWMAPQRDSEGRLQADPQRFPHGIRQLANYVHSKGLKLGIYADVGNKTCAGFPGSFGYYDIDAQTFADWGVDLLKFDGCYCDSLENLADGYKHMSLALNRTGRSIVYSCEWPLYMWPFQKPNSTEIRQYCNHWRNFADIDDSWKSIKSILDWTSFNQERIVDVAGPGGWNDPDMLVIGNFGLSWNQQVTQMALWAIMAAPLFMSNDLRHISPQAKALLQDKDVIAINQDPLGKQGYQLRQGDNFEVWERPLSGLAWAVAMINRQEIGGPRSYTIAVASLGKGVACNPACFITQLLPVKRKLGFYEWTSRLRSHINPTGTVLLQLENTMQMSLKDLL
Procedure: (§1) Baseline and 10 μM migalastat α-Gal A activity: Differences in the α-Gal A activity between lysates incubated in the absence and presence of 10 μM migalastat were determined using a one-tailed, Mann Whitney U test; an increase at 10 μM migalastat with a p<0.05 was considered significant.
(§2) 10 μM migalastat α-Gal A activity (% WT)=(α-Gal A activity in mutant transfected cell lysates incubated with 10 μM migalastat÷α-Gal A activity in wild-type transfected cell lysates without migalastat)*100.
(§3) Absolute increase (% WT)=is the 10 μM migalastat α-Gal A activity (% WT) minus the baseline α-Gal A activity (% WT).
(§4) Relative increase is the 10 μM migalastat α-Gal A activity in mutant transfected cell lysates÷baseline α-Gal A activity in mutant transfected cell lysates incubated without migalastat.

[2] = target: T2, α-Gal A mutant form R112L (Homo sapiens, UniProt P06280, R112L); assay: α-Gal A activity in lysates of transfected HEK-293 cells, R112L
T2 construct: expressed in transfected cells; host or cells: HEK-293
T2 sequence (P06280 32-429 R112L): T1 sequence (P06280 32-429 Y216S) with R81L, S185Y
Procedure: as §1, §2, §3, §4

α-Gal A mutant form N34H = target: T3, α-Gal A mutant form N34H (Homo sapiens, UniProt P06280, N34H); assay: α-Gal A activity in lysates of transfected HEK-293 cells, N34H
T3 construct: expressed in transfected cells; host or cells: HEK-293
T3 sequence (P06280 32-429 N34H): T1 sequence (P06280 32-429 Y216S) with N3H, S185Y
Procedure: as §1, §2, §3, §4

[3] = target: T4, α-Gal A mutant form A257V (Homo sapiens, UniProt P06280, A257V); assay: α-Gal A activity in lysates of transfected HEK-293 cells, A257V
T4 construct: expressed in transfected cells; host or cells: HEK-293
T4 sequence (P06280 32-429 A257V): T1 sequence (P06280 32-429 Y216S) with S185Y, A226V
Procedure: as §1, §2, §3, §4

[4] = target: T5, α-Gal A mutant form N320H (Homo sapiens, UniProt P06280, N320H); assay: α-Gal A activity in lysates of transfected HEK-293 cells, N320H
T5 construct: expressed in transfected cells; host or cells: HEK-293
T5 sequence (P06280 32-429 N320H): T1 sequence (P06280 32-429 Y216S) with S185Y, N289H
Procedure: as §1, §2, §3, §4

[5] = 10 μM migalastat minus baseline
[6] = 10 μM migalastat ÷ baseline activity
[7] = HEK-293 lysates, 10 μM migalastat, 5 days, mean ± SEM
[8] = 10 μM migalastat minus baseline (baseline BLD)
[9] = HEK-293 lysates, 10 μM migalastat, 5 days, mean ± SEM, baseline BLD

Absolute increase (% WT) [1, 5]: 32.7 % WT
Relative increase [1, 6]: 17.70
10 nM migalastat α-Gal A activity ([1]; HEK-293 lysates, 10 nM migalastat as printed, 5 days, mean ± SEM): 11238 ± 751 nmol/mg/h
10 μM migalastat α-Gal A activity (% WT) [1, 7]: 34.7 ± 1.8 % WT
Absolute increase (% WT) [2, 8]: 7.5 % WT
10 μM migalastat α-Gal A activity (% WT) [2, 7]: 7.5 ± 1.1 % WT
10 μM migalastat α-Gal A activity [2, 9]: 2364 ± 296 nmol/mg/h
Absolute increase (% WT) (α-Gal A mutant form N34H; [8]): 3.6 % WT
10 μM migalastat α-Gal A activity (% WT) (α-Gal A mutant form N34H; [7]): 3.6 ± 0.2 % WT
10 μM migalastat α-Gal A activity (α-Gal A mutant form N34H; [9]): 1414 ± 100 nmol/mg/h
Absolute increase (% WT) [3, 5]: 44.4 % WT
Relative increase [3, 6]: 1.85
10 μM migalastat α-Gal A activity [3, 7]: 30313 ± 1981 nmol/mg/h
10 μM migalastat α-Gal A activity (% WT) [3, 7]: 99.9 ± 4.6 % WT
Absolute increase (% WT) [4, 5]: 32.2 % WT
Relative increase [4, 6]: 2.59
10 μM migalastat α-Gal A activity [4, 7]: 22149 ± 1050 nmol/mg/h
10 μM migalastat α-Gal A activity (% WT) [4, 7]: 52.9 ± 3.1 % WT
Structure (SMILES): OC[C@H]1NC[C@H](O)[C@@H](O)[C@H]1O [migalastat, (2R,3S,4R,5S)-2-(hydroxymethyl) piperdine-3,4,5-triol]
